Reference: patent US10081628B2, “Apoptosis-inducing agents for the treatment of cancer and immune and autoimmune diseases” (AbbVie Inc., priority 2013, dated 2018)
Like-named read-outs stand apart in the source and are kept apart here.

How the values were obtained:
RS4;11 cells = assay: RS4;11 cell viability assay (CellTiter Glo); format: cell-based; conditions: 10% human serum, 48 hours
From the text: The acute lymphoblastic leukemia (ALL) cell line RS4;11 was used as the primary human cell line to assess the cellular activity of Bcl-2 selective agents in vitro and their efficacy in vivo. Previous studies have shown by BH3 profiling, a mitochondrial assay that classifies blocks in the intrinsic apoptotic pathway, that RS4;11 cells were highly dependant on BCL-2 for survival and sensitive to the Bcl-2 family member inhibitor ABT-737 (Blood, 2008, Vol. 111, 2300-2309).
RS4;11 cells were cultured in RPMI-1640 supplemented with 2 mM L-glutamine, 10% FBS, 1 mM sodium pyruvate, 2 mM HEPES, 1% penicillin/streptomycin (Invitrogen), 4.5 g/L glucose and maintained at 37 C containing 5% CO2. To test for the cellular activity of compounds in vitro, cells were treated at 50,000 cells per well in 96-well microtiter plates in the presence of 10% human serum for 48 hours in a humidified chamber with 5% CO2. Cell cytotoxicity EC50 values were assessed using CellTiter Glo (Promega) according to the manufacturer's recommendations. The EC50 values were determined as a percentage of viable cells following treatment compared to the untreated control cells.

lymphocytes = assay: Lymphocyte reduction in C57BL/6 mice; format: in vivo; conditions: Mus musculus, ip
Protocol: An experiment was performed to evaluate the effect of Bcl-2 selective/Bcl-xL sparing compounds on immune cells and platelets, as evaluated in C57Bl/6 mice. Mice were treated four days with compounds (doses of 30 mg/kg, administered by intraperitoneal injection every day) and cell numbers were measured with a Cell Dyn hematology analyzer 24 hours after the first and last doses. Exposure of the compound (area under the curve) was calculated by using time points of 1, 6, 10 and 24 hours after the last dose.

GST-Bcl-2 = GST-Bcl-2 (Homo sapiens, UniProt P10415); assay: TR-FRET Bcl-2 binding assay (F-Bak peptide probe); conditions: GST-Bcl-2 1 nM, F-Bak peptide probe 100 nM, Tb-anti-GST 1 nM; Wang's equation; '<' = below limit of detection
GST-Bcl-2, sequence (P10415 whole entry): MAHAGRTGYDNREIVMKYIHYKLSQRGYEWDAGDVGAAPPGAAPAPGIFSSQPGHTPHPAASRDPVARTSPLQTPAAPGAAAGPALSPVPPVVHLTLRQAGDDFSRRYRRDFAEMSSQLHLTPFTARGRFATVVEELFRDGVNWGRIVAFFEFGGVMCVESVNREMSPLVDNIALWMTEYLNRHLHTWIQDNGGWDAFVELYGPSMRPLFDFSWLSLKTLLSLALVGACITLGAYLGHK
Protocol: Determination of the utility of compounds of this invention as binders to and inhibitors of anti-apoptotic Bcl-2 proteins was performed using the Time Resolved-Fluorescence Resonance Energy Transfer (TR-FRET) Assay. Tb-anti-GST antibody was purchased from Invitrogen (Catalog No. PV4216).
Representative compounds were serially diluted in dimethyl sulfoxide (DMSO) starting at 50 μM (2× starting concentration; 10% DMSO) and 10 μL were transferred into a 384-well plate. The samples are then mixed on a shaker for 1 minute and incubated for an additional 3 hours at room temperature. For each assay, the probe/antibody and protein/probe/antibody were included on each assay plate as negative and positive controls, respectively. Fluorescence was measured on the Envision (Perkin Elmer) using a 340/35 nm excitation filter and 520/525 (F-Bak peptide) and 495/510 nm (Tb-labeled […] antibody) emission filters. Dissociation constants (Ki) are shown in TABLE 2 below and were determined using Wang's equation (Wang Z.-X., An Exact Mathematical Expression For Describing Competitive Binding Of Two Different Ligands To A Protein Molecule. FEBS Lett. 1995, 360:111-4).
The samples were then mixed on a shaker for 1 minute and incubated for an additional 3 hours at room temperature. For each assay, the probe/antibody and protein/probe/antibody were included on each assay plate as negative and positive controls, respectively. Fluorescence was measured on the Envision (Perkin Elmer) using a 340/35 nm excitation filter and 520/525 (F-Bak peptide) and 495/510 nm (Tb-labeled anti-Histidine antibody) emission filters.
Inhibition constants (Ki) for compounds were determined using Wang's equation (Wang Zx. An Exact Mathematical Expression For Describing Competitive Binding Of Two Different Ligands To A Protein Molecule. FEBS Lett. 1995, 360:111-4).
The inhibition constant (Ki) is the dissociation constant of an enzyme-inhibitor complex or a protein/small molecule complex, wherein the small molecule is inhibiting binding of one protein to another protein or peptide. So a large Ki value indicates a low binding affinity and a small Ki value indicates a high binding affinity. […] The compounds are therefore expected to have utility in treatment of diseases during which anti-apoptotic Bcl-2 protein is expressed. Biological Data

[1] = 30 mg/kg intraperitoneal every day for four days, 24 hours after the last dose, read-out: Lymphocyte reduction % inh. day 4
[2] = 30 mg/kg intraperitoneal every day, 24 hours after the first dose, read-out: Lymphocyte reduction % inh. day 1

C[C@H](Nc1ccc(S(=O)(=O)NC(=O)c2ccc(N3CCN(CC4=C(c5ccc(Cl)cc5)CC(C)(C)CC4)CC3)cc2Oc2cnc3[nH]ccc3c2)cc1[N+](=O)[O-])C1CCOCC1 [Example 2, 4-(4-{[2-(4-chlorophenyl)-4,4-dimethylcyclohex-1-en-1-yl]methyl}piperazin-1-yl)-N-[(3-nitro-4-{[(1S)-1-(tetrahydro-2H-pyran-4-yl)ethyl]amino}phenyl)sulfonyl]-2-(1H-pyrrolo[2,3-b]pyridin-5-yloxy)benzamide]
EC50 (RS4;11 cells): 160 nM
inhibition at 30 mg/kg (lymphocytes; [1]): < 15%
inhibition at 30 mg/kg (lymphocytes; [2]): < 15%

CC1(C)CCC(CN2CCN(c3ccc(C(=O)NS(=O)(=O)c4ccc(NC[C@H]5CC[C@]6(CCCO6)CC5)c([N+](=O)[O-])c4)c(Oc4cnc5[nH]ccc5c4)c3)CC2)=C(c2ccc(Cl)cc2)C1 [Example 4, 4-(4-{[2-(4-chlorophenyl)-4,4-dimethylcyclohex-1-en-1-yl]methyl}piperazin-1-yl)-N-[(3-nitro-4-{[(5S,8S)-1-oxaspiro[4.5]dec-8-ylmethyl]amino}phenyl)sulfonyl]-2-(1H-pyrrolo[2,3-b]pyridin-5-yloxy)benzamide]
EC50 (RS4;11 cells): 57 nM
Ki (GST-Bcl-2): < 0.1 nM

CC1(C)CCC(CN2CCN(c3ccc(C(=O)NS(=O)(=O)c4ccc(NCC5CCC6(CC5)OCCO6)c([N+](=O)[O-])c4)c(Oc4cnc5[nH]ccc5c4)c3)CC2)=C(c2ccc(Cl)cc2)C1 [Example 7, 4-(4-{[2-(4-chlorophenyl)-4,4-dimethylcyclohex-1-en-1-yl]methyl}piperazin-1-yl)-N-({4-[(1,4-dioxaspiro[4.5]dec-8-ylmethyl)amino]-3-nitrophenyl}sulfonyl)-2-(1H-pyrrolo[2,3-b]pyridin-5-yloxy)benzamide]
EC50 (RS4;11 cells): 6.8 nM
inhibition at 30 mg/kg (lymphocytes; [1]): 55%
inhibition at 30 mg/kg (lymphocytes; [2]): 64%

CC1(C)CCC(CN2CCN(c3ccc(C(=O)NS(=O)(=O)c4ccc(N5CCOCC5)c([N+](=O)[O-])c4)c(Oc4cnc5[nH]ccc5c4)c3)CC2)=C(c2ccc(Cl)cc2)C1 [Example 8, 4-(4-{[2-(4-chlorophenyl)-4,4-dimethylcyclohex-1-en-1-yl]methyl}piperazin-1-yl)-N-{[4-(morpholin-4-yl)-3-nitrophenyl]sulfonyl}-2-(1H-pyrrolo[2,3-b]pyridin-5-yloxy)benzamide]
EC50 (RS4;11 cells): > 1000 nM
Ki (GST-Bcl-2): 0.7 nM

CC1(C)CCC(CN2CCN(c3ccc(C(=O)NS(=O)(=O)c4ccc(NC56CC7CC(CC(O)(C7)C5)C6)c([N+](=O)[O-])c4)c(Oc4cnc5[nH]ccc5c4)c3)CC2)=C(c2ccc(Cl)cc2)C1 [Example 13, 4-(4-{[2-(4-chlorophenyl)-4,4-dimethylcyclohex-1-en-1-yl]methyl}piperazin-1-yl)-N-({4-[(3-hydroxytricyclo[3.3.1.1^3,7]dec-1-yl)amino]-3-nitrophenyl}sulfonyl)-2-(1H-pyrrolo[2,3-b]pyridin-5-yloxy)benzamide]
EC50 (RS4;11 cells): 130 nM

COC(=O)C1(CNc2ccc(S(=O)(=O)NC(=O)c3ccc(N4CCN(CC5=C(c6ccc(Cl)cc6)CC(C)(C)CC5)CC4)cc3Oc3cnc4[nH]ccc4c3)cc2[N+](=O)[O-])CCOCC1 [Example 17, methyl 4-{[(4-{[4-(4-{[2-(4-chlorophenyl)-4,4-dimethylcyclohex-1-en-1-yl]methyl}piperazin-1-yl)-2-(1H-pyrrolo[2,3-b]pyridin-5-yloxy)benzoyl]sulfamoyl}-2-nitrophenyl)amino]methyl}tetrahydro-2H-pyran-4-carboxylate]
EC50 (RS4;11 cells): 85 nM

CC1(C)CCC(CN2CCN(c3ccc(C(=O)NS(=O)(=O)c4ccc(NC[C@@H]5CCCOCC5)c([N+](=O)[O-])c4)c(Oc4cnc5[nH]ccc5c4)c3)CC2)=C(c2ccc(Cl)cc2)C1 [Example 19, 4-(4-{[2-(4-chlorophenyl)-4,4-dimethylcyclohex-1-en-1-yl]methyl}piperazin-1-yl)-N-[(3-nitro-4-{[(4R)-oxepan-4-ylmethyl]amino}phenyl)sulfonyl]-2-(1H-pyrrolo[2,3-b]pyridin-5-yloxy)benzamide]
EC50 (RS4;11 cells): 14 nM
inhibition at 30 mg/kg (lymphocytes; [1]): 45%
inhibition at 30 mg/kg (lymphocytes; [2]): 49%

CC1(C)CCC(CN2CCN(c3ccc(C(=O)NS(=O)(=O)c4ccc(NCC5(F)COCCOC5)c([N+](=O)[O-])c4)c(Oc4cnc5[nH]ccc5c4)c3)CC2)=C(c2ccc(Cl)cc2)C1 [Example 39, 4-(4-{[2-(4-chlorophenyl)-4,4-dimethylcyclohex-1-en-1-yl]methyl}piperazin-1-yl)-N-[(4-{[(6-fluoro-1,4-dioxepan-6-yl)methyl]amino}-3-nitrophenyl)sulfonyl]-2-(1H-pyrrolo[2,3-b]pyridin-5-yloxy)benzamide]
EC50 (RS4;11 cells): 40 nM

CC1(C)CCC(CN2CCN(c3ccc(C(=O)NS(=O)(=O)c4ccc(NCC5CCOCC5)c([N+](=O)[O-])c4)c(Oc4cnc5[nH]ccc5c4)c3)CC2)=C(c2ccc(Cl)cc2F)C1 [Example 48, 4-(4-{[2-(4-chloro-2-fluorophenyl)-4,4-dimethylcyclohex-1-en-1-yl]methyl}piperazin-1-yl)-N-({3-nitro-4-[(tetrahydro-2H-pyran-4-ylmethyl)amino]phenyl}sulfonyl)-2-(1H-pyrrolo[2,3-b]pyridin-5-yloxy)benzamide]
EC50 (RS4;11 cells): 3.3 nM
inhibition at 30 mg/kg (lymphocytes; [1]): 78%
inhibition at 30 mg/kg (lymphocytes; [2]): 76%

CC1(C)CCC(CN2CCN(c3ccc(C(=O)NS(=O)(=O)c4ccc(NCC5CCOCC5)c([N+](=O)[O-])c4)c(Oc4cnc5[nH]ccc5c4)c3)CC2)=C(c2ccc(Cl)c(F)c2)C1 [Example 49, 4-(4-{[2-(4-chloro-3-fluorophenyl)-4,4-dimethylcyclohex-1-en-1-yl]methyl}piperazin-1-yl)-N-({3-nitro-4-[(tetrahydro-2H-pyran-4-ylmethyl)amino]phenyl}sulfonyl)-2-(1H-pyrrolo[2,3-b]pyridin-5-yloxy)benzamide]
EC50 (RS4;11 cells): 46 nM

CCC1(CNc2ccc(S(=O)(=O)NC(=O)c3ccc(N4CCN(CC5=C(c6ccc(Cl)cc6)CC(C)(C)CC5)CC4)cc3Oc3cnc4[nH]ccc4c3)cc2[N+](=O)[O-])CCOCC1 [Example 50, 4-(4-{[2-(4-chlorophenyl)-4,4-dimethylcyclohex-1-en-1-yl]methyl}piperazin-1-yl)-N-[(4-{[(4-ethyltetrahydro-2H-pyran-4-yl)methyl]amino}-3-nitrophenyl)sulfonyl]-2-(1H-pyrrolo[2,3-b]pyridin-5-yloxy)benzamide]
EC50 (RS4;11 cells): 52 nM

CC1(C)CCC(CN2CCN(c3ccc(C(=O)NS(=O)(=O)c4ccc(NCC5CCOCC5)c([N+](=O)[O-])c4)c(Oc4cnc5[nH]ccc5c4)c3)CC2)=C(c2ccc(C3CC3)cc2)C1 [Example 52, 4-(4-{[2-(4-cyclopropylphenyl)-4,4-dimethylcyclohex-1-en-1-yl]methyl}piperazin-1-yl)-N-({3-nitro-4-[(tetrahydro-2H-pyran-4-ylmethyl)amino]phenyl}sulfonyl)-2-(1H-pyrrolo[2,3-b]pyridin-5-yloxy)benzamide]
EC50 (RS4;11 cells): 16 nM
inhibition at 30 mg/kg (lymphocytes; [1]): 51%
inhibition at 30 mg/kg (lymphocytes; [2]): 54%

CC1(C)CCC(CN2CCN(c3ccc(C(=O)NS(=O)(=O)c4ccc(NCC5CCOCC5)c([N+](=O)[O-])c4)c(Oc4cnc5[nH]ccc5c4)c3)CC2)=C(c2ccc(C(F)F)cc2)C1 [Example 54, 4-[4-({2-[4-(difluoromethyl)phenyl]-4,4-dimethylcyclohex-1-en-1-yl}methyl)piperazin-1-yl]-N-({3-nitro-4-[(tetrahydro-2H-pyran-4-ylmethyl)amino]phenyl}sulfonyl)-2-(1H-pyrrolo[2,3-b]pyridin-5-yloxy)benzamide]
EC50 (RS4;11 cells): 9.9 nM
